Measured values reported in PubChem BioAssay (NCI).
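Values below derive from 48-hour exposures of cells grown in 96-well plates, with endpoints linearly interpolated between the two concentrations bracketing the appropriate inhibition level. GI50 marks 50% less growth. At the TGI there is no net growth.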

Assays:
Test in all cases: NCI anticancer screen, dose series, 48 h
SN12C renal = system: SN12C renal
A498 renal = system: A498 renal
OVCAR-3 ovarian = system: OVCAR-3 ovarian
SNB-75 CNS = system: SNB-75 CNS
SK-MEL-28 melanoma = system: SK-MEL-28 melanoma
HCT-15 colon = system: HCT-15 colon
CCRF-CEM leukemia = system: CCRF-CEM leukemia
SK-MEL-5 melanoma = system: SK-MEL-5 melanoma
U251 CNS = system: U251 CNS
MDA-MB-231 breast = system: MDA-MB-231 breast

Row | SMILES | TGI (SN12C renal) [µM] | TGI (A498 renal) [µM] | TGI (OVCAR-3 ovarian) [µM] | TGI (SNB-75 CNS) [µM] | TGI (SK-MEL-28 melanoma) [µM] | TGI (HCT-15 colon) [µM] | TGI (CCRF-CEM leukemia) [µM] | TGI (SK-MEL-5 melanoma) [µM] | TGI (U251 CNS) [µM] | GI50 (SN12C renal) [µM] | GI50 (A498 renal) [µM] | GI50 (SNB-75 CNS) [µM] | GI50 (SK-MEL-28 melanoma) [µM] | GI50 (HCT-15 colon) [µM] | GI50 (CCRF-CEM leukemia) [µM] | GI50 (OVCAR-3 ovarian) [µM] | GI50 (MDA-MB-231 breast) [µM] | TGI (MDA-MB-231 breast) [µM] | GI50 (SK-MEL-5 melanoma) [µM] | GI50 (U251 CNS) [µM]
1 | CC1(c2cccc(N)c2)C2C(=O)NC(=O)C1C(=O)NC2=O (stereo not drawn) | 97.7 | 99.6 | 57.1 | 73.2 | > 100 | > 100 | 62.5 | 37 | – | – | – | – | – | – | – | – | – | – | – | –
2 | CSc1nc2c(nc(N)n2C2OC(COC(C)=O)C(OC(C)=O)C(OC(C)=O)C2OC(C)=O)c(=O)n1C (stereo not drawn) | > 100 | > 100 | > 100 | > 100 | – | > 100 | > 100 | > 100 | > 100 | – | – | – | – | – | – | – | – | – | – | –
3 | CC(=O)[CH-]C(=O)c1ccccc1.CC(=O)[CH-]C(=O)c1ccccc1.CC1(C)OCC(C2OC3OC(C)(C)OC3C2[O-])O1.CC1(C)OCC(C2OC3OC(C)(C)OC3C2[O-])O1.[Ti+4] (stereo not drawn) | 43.4 | 30.2 | – | 28.5 | 29.9 | 46.5 | 39.8 | – | – | 17.7 | 15.7 | 11 | 14 | 15.4 | 3.49 | – | – | – | – | –
4 | O=[N+]([O-])c1ccc(Sc2nc(Cl)nc(NC3CCCC3)n2)cc1 | > 10 | > 10 | > 10 | > 10 | > 10 | > 10 | – | > 10 | > 10 | > 10 | > 10 | > 10 | 7 | > 10 | – | > 10 | > 10 | > 10 | 5.32 | > 10
5 | CCC(CCC(C)C1CCC2C3CC=C4CC(OC5OC(CO)C(O)C(O)C5O)CCC4(C)C3CCC12C)C(C)C (stereo not drawn) | > 100 | > 100 | > 100 | – | > 100 | > 100 | > 100 | > 100 | > 100 | – | – | – | – | – | – | – | – | > 100 | – | –
6 | Cn1c2ccccc2c(=O)c2c(O)cc3c(c21)CC(C1(C)CO1)O3 (stereo not drawn) | 3.77 | 33.9 | 12.9 | 24 | 7.59 | 30.6 | – | 3.88 | 11.7 | – | – | – | – | – | – | – | – | 5.85 | – | –
7 | Cn1cc(-c2csc(-c3cn(CCCCN4CCCCC4)c4ccc(F)cc34)n2)c2cccnc21 | – | 3.28 | 3.17 | – | – | 3.06 | – | – | – | – | 1.6 | – | – | 1.7 | – | 1.77 | – | – | – | –
8 | CSc1ccc(OCC2OC2O)cc1 (stereo not drawn) | > 100 | > 100 | > 100 | > 100 | – | > 54.2 | > 100 | 35.6 | > 100 | – | – | – | – | – | – | – | – | – | – | –
9 | C1COCCOCCOCCOCCOCCO1.[Cl][Sn]([Cl])([c]1ccccc1)[c]1ccccc1 | 20.4 | 11.9 | 15.5 | 19.6 | 4.19 | 13.5 | – | 17.2 | 6.81 | 7.02 | 3.12 | 5.19 | 2 | 4.14 | – | 4.88 | – | – | 4.86 | 2.65
10 | CCC(C)[C@H](NC(=O)NC(=O)NC(=O)CI)C(=O)OC (stereo partly drawn) | 20.4 | 30.5 | 4.66 | 26.1 | 27.5 | 3.42 | – | 30.5 | 27.9 | 4.28 | 16.2 | 10.3 | 13.6 | 1.76 | – | 2.2 | 13.6 | 30.7 | 16.7 | 14.8
11 | CC1(C)CCCC(C)(C2CCC3(C)C2C(O)CC2C4(C)CCC(O)C(C)(C)C4C(O)CC23C)O1 (stereo not drawn) | 30.8 | 28.1 | – | 24.6 | 28.2 | 24.7 | 8.67 | 17.6 | 34.4 | – | – | – | – | – | – | – | – | 34.8 | – | –
12 | COC(=O)NN1C(C)=C(C(=O)OC)C2(C#N)C(C(=O)OC)=C(C)N(NC(=O)OC)C12N (stereo not drawn) | > 100 | > 100 | – | – | > 100 | > 100 | > 100 | – | > 100 | – | – | – | – | – | – | – | – | – | – | –
13 | N#Cc1ccsc1NC(=O)COC(=O)c1cccc(S(=O)(=O)N2CCc3ccccc32)c1 | – | > 100 | > 100 | > 100 | > 100 | > 100 | > 100 | > 100 | > 100 | – | > 100 | 29.9 | 22.4 | 3.25 | 14.5 | 53.7 | – | – | 21.1 | 11.2
14 | COc1cc(/C=C2\Oc3cc(OCCCN4CCCC4)ccc3C2=O)cc(OC)c1 | 22 | – | 8.17 | 22.9 | 16 | 12.3 | 10.4 | 4.6 | 7.71 | 10.3 | – | 11 | 4.12 | 2.84 | 2.76 | 2.74 | 3.28 | 11.1 | 2 | 2.38
15 | COC(=O)c1ccc2c(c1)C(=O)c1c-2n(C)c(=O)c2cc(OC)c(OC)cc12 | > 50 | > 50 | > 50 | – | > 50 | > 50 | > 50 | > 50 | > 50 | > 50 | > 50 | – | > 50 | > 50 | > 50 | 44.6 | 21.2 | > 50 | > 50 | 19.8
16 | CCCCCc1cc[n+](CC(=O)c2ccc([N+](=O)[O-])cc2)cc1 | > 100 | 24.6 | 10.4 | 26.6 | > 100 | 49.9 | – | 4.56 | 28.2 | 9.63 | 10.4 | 10.9 | 28.9 | 13.6 | – | 2.78 | 6.46 | 35.7 | 1.95 | 4.44
17 | COC(=O)NC(=Nc1ccc(Oc2ccccc2)cc1NC=O)NC(=O)OC | > 100 | 1.08 | – | > 100 | – | – | > 100 | > 100 | 1.21 | – | – | – | – | – | – | – | – | – | – | –
